# Data from patent US9695155B2, “Herbicidal substituted pyrimidinyloxy benzene compounds” (E. I. DU PONT DE NEMOURS AND COMPANY, priority 2013, dated 2017).
# How the values were obtained:
# field bindweed = experiment: Test E preemergence; format: in vivo, Convolvulus arvensis; conditions: for Field Bindweed plant response rating: scale 0 to 100 (0 no effect, 100 complete control); for Plant response rating, Field Bindweed: scale 0 to 100, 0 no effect, 100 complete control
# Method in brief: (§1)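 Compound in a non-phytotoxic solvent mixture with surfactant was applied preemergence to seeds in silt loam soil, or postemergence to plants 2 to 18 cm tall grown in peat-based potting medium. Plants were kept in a greenhouse for 14 to 21 days, then rated visually against untreated controls on a 0 (no effect) to 100 (complete control) scale.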
# nightshade = experiment: Test E preemergence; format: in vivo, Solanum ptycanthum; conditions: for Nightshade plant response rating: scale 0 to 100 (0 no effect, 100 complete control); for Plant response rating, Nightshade: scale 0 to 100, 0 no effect, 100 complete control
# Method in brief: as §1
# rice = experiment: Test C flooded paddy test; format: in vivo, Oryza sativa; conditions: Flood, scale 0 to 100 (0 no effect, 100 complete control), 13 to 15 days
# Method in brief: (§2)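 Ratings were visual and made relative to untreated controls after 13 to 15 greenhouse days.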
# kochia = experiment: Test E preemergence; format: in vivo, Kochia scoparia; conditions: for Kochia plant response rating: scale 0 to 100 (0 no effect, 100 complete control); for Plant response rating, Kochia: scale 0 to 100, 0 no effect, 100 complete control
# Method in brief: as §1
# velvetleaf = experiment: Test E preemergence; format: in vivo, Abutilon theophrasti; conditions: for Velvetleaf plant response rating: scale 0 to 100 (0 no effect, 100 complete control); for Plant response rating, Velvetleaf: scale 0 to 100, 0 no effect, 100 complete control
# Method in brief: as §1
# hairy beggarticks = experiment: Test E preemergence; format: in vivo, Bidens pilosa; conditions: for Beggarticks plant response rating: scale 0 to 100 (0 no effect, 100 complete control); for Plant response rating, Beggarticks: scale 0 to 100, 0 no effect, 100 complete control
# Method in brief: as §1
# sedge, umbrella = experiment: Test C flooded paddy test; format: in vivo, Cyperus difformis; conditions: Flood, scale 0 to 100 (0 no effect, 100 complete control), 13 to 15 days
# Method in brief: as §2
# wild poinsettia = experiment: Test E preemergence; format: in vivo, Euphorbia heterophylla; conditions: for Poinsettia, Wild plant response rating: scale 0 to 100 (0 no effect, 100 complete control); for Plant response rating, Poinsettia, Wild: scale 0 to 100, 0 no effect, 100 complete control
# Method in brief: as §1
# Brazilian crabgrass = experiment: Test E preemergence; format: in vivo, Digitaria horizontalis; conditions: for Crabgrass, Brazil plant response rating: scale 0 to 100 (0 no effect, 100 complete control); for Plant response rating, Crabgrass, Brazil: scale 0 to 100, 0 no effect, 100 complete control
# Method in brief: as §1
# arrowleaf sida = experiment: Test E preemergence; format: in vivo, Sida rhombifolia; conditions: for Arrowleaf Sida plant response rating: scale 0 to 100 (0 no effect, 100 complete control); for Plant response rating, Arrowleaf Sida: scale 0 to 100, 0 no effect, 100 complete control
# Method in brief: as §1
# johnsongrass = experiment: Test E preemergence; format: in vivo, Sorghum halepense; conditions: for Johnsongrass plant response rating: scale 0 to 100 (0 no effect, 100 complete control)
# Method in brief: as §1
# dayflower = experiment: Test E preemergence; format: in vivo, Commelina virginica; conditions: for Dayflower, VA plant response rating: scale 0 to 100 (0 no effect, 100 complete control); for Plant response rating, Dayflower, VA: scale 0 to 100, 0 no effect, 100 complete control
# Method in brief: as §1
smiles,measurement,setting,value
"FC(F)(F)c1cnn(-c2ccccc2Oc2ncc(Br)cn2)c1 [Compound 18, 5-bromo-2-[2-[4-(trifluoromethyl)-1H-pyrazol-1-yl]phenoxy]pyrimidine]",Field Bindweed plant response rating,field bindweed; 16 g ai/ha,0
same,Field Bindweed plant response rating,field bindweed; 31 g ai/ha,0
same,Field Bindweed plant response rating,field bindweed; 62 g ai/ha,30
same,"Plant response rating, Field Bindweed",field bindweed; 125 g ai/ha,40
same,"Plant response rating, Field Bindweed",field bindweed; 250 g ai/ha,40
same,Nightshade plant response rating,nightshade; 16 g ai/ha,0
same,Nightshade plant response rating,nightshade; 31 g ai/ha,95
same,Nightshade plant response rating,nightshade; 62 g ai/ha,98
same,"Plant response rating, Nightshade",nightshade; 125 g ai/ha,100
same,"Plant response rating, Nightshade",nightshade; 250 g ai/ha,100
same,"Plant response rating, Rice",rice; 31 g ai/ha,0
same,"Plant response rating, Rice",rice; 62 g ai/ha,0
same,"Plant response rating, Rice",rice; 125 g ai/ha,0
same,"Plant response rating, Rice",rice; 250 g ai/ha,10
same,Kochia plant response rating,kochia; 16 g ai/ha,0
same,Kochia plant response rating,kochia; 31 g ai/ha,0
same,Kochia plant response rating,kochia; 62 g ai/ha,80
same,"Plant response rating, Kochia",kochia; 125 g ai/ha,100
same,"Plant response rating, Kochia",kochia; 250 g ai/ha,100
same,Velvetleaf plant response rating,velvetleaf; 16 g ai/ha,25
same,Velvetleaf plant response rating,velvetleaf; 31 g ai/ha,95
same,Velvetleaf plant response rating,velvetleaf; 62 g ai/ha,100
same,"Plant response rating, Velvetleaf",velvetleaf; 125 g ai/ha,100
same,"Plant response rating, Velvetleaf",velvetleaf; 250 g ai/ha,100
same,Beggarticks plant response rating,"hairy beggarticks; 16 g ai/ha, preemergence",0
same,Beggarticks plant response rating,"hairy beggarticks; 31 g ai/ha, preemergence",0
same,"Plant response rating, Beggarticks","hairy beggarticks; Preemergence, 62 g ai/ha",0
same,"Plant response rating, Beggarticks","hairy beggarticks; preemergence, 125 g ai/ha",0
same,"Plant response rating, Beggarticks","hairy beggarticks; preemergence, 250 g ai/ha",0
same,"Plant response rating, Sedge, Umbrella","sedge, umbrella; 31 g ai/ha",70
same,"Plant response rating, Sedge, Umbrella","sedge, umbrella; 62 g ai/ha",75
same,"Plant response rating, Sedge, Umbrella","sedge, umbrella; 125 g ai/ha",85
same,"Plant response rating, Sedge, Umbrella","sedge, umbrella; 250 g ai/ha",90
same,"Poinsettia, Wild plant response rating",wild poinsettia; 16 g ai/ha,0
same,"Poinsettia, Wild plant response rating",wild poinsettia; 31 g ai/ha,0
same,"Poinsettia, Wild plant response rating",wild poinsettia; 62 g ai/ha,0
same,"Plant response rating, Poinsettia, Wild",wild poinsettia; 125 g ai/ha,0
same,"Plant response rating, Poinsettia, Wild",wild poinsettia; 250 g ai/ha,50
same,"Crabgrass, Brazil plant response rating",Brazilian crabgrass; 16 g ai/ha,0
same,"Crabgrass, Brazil plant response rating",Brazilian crabgrass; 31 g ai/ha,95
same,"Crabgrass, Brazil plant response rating",Brazilian crabgrass; 62 g ai/ha,98
same,"Plant response rating, Crabgrass, Brazil",Brazilian crabgrass; 125 g ai/ha,100
same,"Plant response rating, Crabgrass, Brazil",Brazilian crabgrass; 250 g ai/ha,100
same,Arrowleaf Sida plant response rating,"arrowleaf sida; 16 g ai/ha, preemergence",0
same,Arrowleaf Sida plant response rating,"arrowleaf sida; 31 g ai/ha, preemergence",5
same,"Plant response rating, Arrowleaf Sida","arrowleaf sida; Preemergence, 62 g ai/ha",70
same,"Plant response rating, Arrowleaf Sida","arrowleaf sida; preemergence, 125 g ai/ha",85
same,"Plant response rating, Arrowleaf Sida","arrowleaf sida; preemergence, 250 g ai/ha",95
same,Johnsongrass plant response rating,johnsongrass; 16 g ai/ha,0
same,Johnsongrass plant response rating,johnsongrass; 31 g ai/ha,0
same,Johnsongrass plant response rating,johnsongrass; 62 g ai/ha,0
same,"Plant response rating, Johnsongrass","johnsongrass; 125 g ai/ha, scale 0 to 100, 0 no effect, 100 complete control",80
same,"Dayflower, VA plant response rating",dayflower; 16 g ai/ha,0
same,"Dayflower, VA plant response rating",dayflower; 31 g ai/ha,0
same,"Dayflower, VA plant response rating",dayflower; 62 g ai/ha,35
same,"Plant response rating, Dayflower, VA",dayflower; 125 g ai/ha,95
same,"Plant response rating, Dayflower, VA",dayflower; 250 g ai/ha,98
